Results taken from ChEMBL document CHEMBL4819070, “Synthesis and biological evaluation of 2-(4-alkoxy-3-cyano)phenylpyrimidine derivatives with 4-amino or 4-hydroxy as a pharmacophore element binding with xanthine oxidase active site” (Bioorg Med Chem, 2021).
Calls of active or inactive are those of the source. The rule behind the calls is not given here.

Columns and labels:
[1] = biological target: T1, Xanthine dehydrogenase/oxidase (Bos taurus, UniProt P80457); test: Inhibition of bovine milk xanthine oxidase assessed as reduction in uric acid formation using xanthine as substrate preincubated for 15 mins followed by substrate addition measured for every 30 sec by spectrophotometric analysis
T1 sequence (P80457 whole entry): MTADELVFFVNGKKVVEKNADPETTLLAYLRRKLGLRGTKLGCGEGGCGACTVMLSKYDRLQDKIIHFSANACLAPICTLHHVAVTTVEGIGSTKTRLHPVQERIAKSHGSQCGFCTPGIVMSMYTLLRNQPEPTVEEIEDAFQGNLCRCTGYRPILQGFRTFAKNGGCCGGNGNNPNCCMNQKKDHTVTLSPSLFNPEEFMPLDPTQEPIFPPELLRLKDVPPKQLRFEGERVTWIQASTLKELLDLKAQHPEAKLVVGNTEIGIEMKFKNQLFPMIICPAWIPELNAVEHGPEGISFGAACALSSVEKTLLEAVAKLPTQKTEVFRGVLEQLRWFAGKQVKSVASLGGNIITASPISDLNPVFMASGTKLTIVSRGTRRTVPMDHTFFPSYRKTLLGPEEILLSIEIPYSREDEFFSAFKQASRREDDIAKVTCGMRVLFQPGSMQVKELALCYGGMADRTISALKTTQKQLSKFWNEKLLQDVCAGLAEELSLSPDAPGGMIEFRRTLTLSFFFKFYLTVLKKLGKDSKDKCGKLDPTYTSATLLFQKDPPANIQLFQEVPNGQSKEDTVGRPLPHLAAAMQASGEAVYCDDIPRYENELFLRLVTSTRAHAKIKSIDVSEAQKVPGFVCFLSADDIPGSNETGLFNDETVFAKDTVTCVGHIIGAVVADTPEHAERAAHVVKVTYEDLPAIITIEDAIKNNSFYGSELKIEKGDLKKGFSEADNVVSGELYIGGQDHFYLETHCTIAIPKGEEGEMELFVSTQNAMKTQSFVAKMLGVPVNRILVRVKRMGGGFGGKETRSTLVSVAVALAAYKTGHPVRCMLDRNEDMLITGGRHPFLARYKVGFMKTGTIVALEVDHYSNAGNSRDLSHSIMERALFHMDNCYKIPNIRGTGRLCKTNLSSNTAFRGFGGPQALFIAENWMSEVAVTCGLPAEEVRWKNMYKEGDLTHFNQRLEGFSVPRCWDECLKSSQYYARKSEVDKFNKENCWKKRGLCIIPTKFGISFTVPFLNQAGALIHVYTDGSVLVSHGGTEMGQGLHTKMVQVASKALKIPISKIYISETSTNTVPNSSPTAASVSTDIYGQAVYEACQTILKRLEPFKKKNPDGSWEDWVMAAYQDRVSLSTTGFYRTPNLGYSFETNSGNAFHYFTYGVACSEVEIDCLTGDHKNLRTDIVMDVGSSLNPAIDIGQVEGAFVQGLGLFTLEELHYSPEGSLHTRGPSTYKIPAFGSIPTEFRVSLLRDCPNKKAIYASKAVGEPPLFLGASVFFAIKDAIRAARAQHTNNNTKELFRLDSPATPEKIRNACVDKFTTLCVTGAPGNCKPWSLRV

[2] = biological target: T1, Xanthine dehydrogenase/oxidase; test: Mixed type inhibition of bovine milk xanthine oxidase assessed as inhibitory constant using xanthine as substrate preincubated for 15 mins followed by substrate addition measured for every 30 sec by spectrophotometric analysis
Rattus norvegicus [3] = test: Hypouricemic activity in Sprague-Dawley rat model of Potassium oxonate-induced acute hyperuricemia assessed as decrease in serum uric acid at 10 mg/kg, IG administered after potassium oxonate treatment and measured upto 8 hrs; type: functional, organism-based; settings: time hrs <=8
Rattus norvegicus [4] = test: Hypouricemic activity in Sprague-Dawley rat model of Potassium oxonate-induced acute hyperuricemia assessed as decrease in serum uric acid at 30 to 90 mg/kg, IG administered after potassium oxonate treatment and measured at 1 hr; type: functional, organism-based; settings: dose 30-90 mg/kg
Rattus norvegicus [5] = test: Hypouricemic activity in Sprague-Dawley rat model of Potassium oxonate-induced acute hyperuricemia assessed as decrease in serum uric acid AUC (1 to 8 hrs) at 30 to 90 mg/kg, IG administered after potassium oxonate treatment and measured at 1 hr; type: functional, organism-based; settings: dose 30-90 mg/kg
[6] = biological target: T1, Xanthine dehydrogenase/oxidase; test: Inhibition of bovine milk xanthine oxidase assessed as increase in Km at 0.01 to 0.06 uM by Lineweaver-Burk plot analysis; settings: cattle, dose 0.01-0.06 µM
[7] = biological target: T1, Xanthine dehydrogenase/oxidase; test: Inhibition of bovine milk xanthine oxidase assessed as decrease in Vmax at 0.01 to 0.06 uM by Lineweaver-Burk plot analysis; settings: cattle, dose 0.01-0.06 µM
[8] = biological target: T1, Xanthine dehydrogenase/oxidase; test: Inhibition of bovine milk xanthine oxidase assessed as reduction in uric acid formation at 10 uM using xanthine as substrate preincubated for 15 mins followed by substrate addition measured for every 30 sec by spectrophotometric analysis relative to control; settings: cattle, 0.5 min

Row | IC50 [1] | Compound | further results
1 | 148 nM | N#Cc1cc(-c2nccc(O)n2)ccc1OCc1ccc(Cl)cc1 | 
2 | 193 nM | COc1ccc(COc2ccc(-c3nccc(O)n3)cc2C#N)cc1 | 
3 | 4450 nM | N#Cc1cc(-c2ncccn2)ccc1OCC1CCCCC1 | 
4 | 93 nM | N#Cc1cc(-c2nccc(O)n2)ccc1OCC1CC1 | 
5 | 347 nM | N#Cc1cc(-c2nccc(N)n2)ccc1OCc1ccccc1 | 
6 | 1950 nM | N#Cc1cc(-c2ncccn2)ccc1OCc1ccccc1 | 
7 | 539 nM | N#Cc1cc(-c2nccc(N)n2)ccc1OCC1CCCCC1 | 
8 | 282 nM | CC(C)(C)c1ccc(COc2ccc(-c3nccc(O)n3)cc2C#N)cc1 | 
9 | 55 nM | CC(C)=COc1ccc(-c2nccc(O)n2)cc1C#N | 
10 | 262 nM | CC(C)COc1ccc(-c2nccc(N)n2)cc1C#N | 
11 | 179 nM | COc1ccc(-c2nccc(O)n2)cc1C#N | 
12 | 79 nM | Cc1ccc(COc2ccc(-c3nccc(O)n3)cc2C#N)cc1 | 
13 | 77 nM | N#Cc1cc(-c2nccc(O)n2)ccc1OCc1cccc(F)c1 | 
14 | 46 nM | CC(C)CCOc1ccc(-c2nccc(O)n2)cc1C#N | Ki [2]: 18 nM; Activity (Rattus norvegicus [3]): inactive; Activity (Rattus norvegicus [4]): Active; Activity (Rattus norvegicus [5]): Active; inhibition (INH) [6]: Active; inhibition (INH) [7]: Active
15 | 95 nM | N#Cc1cc(-c2nccc(O)n2)ccc1OCc1ccc(Br)cc1 | 
16 | 66 nM | N#Cc1cc(-c2nccc(O)n2)ccc1OCc1ccccc1 | 
17 | 74 nM | CC(C)Oc1ccc(-c2nccc(O)n2)cc1C#N | 
18 | 275 nM | N#Cc1cc(-c2nc(N)cc(O)n2)ccc1OCC1CCCCC1 | 
19 | 130 nM | CC(C)COc1ccc(-c2nc(N)cc(O)n2)cc1C#N | 
20 | 60 nM | N#Cc1cc(-c2nccc(O)n2)ccc1OCc1ccccc1F | 
21 | 69 nM | CC(C)COc1ccc(-c2nccc(O)n2)cc1C#N | 
22 | 75 nM | N#Cc1cc(-c2nccc(O)n2)ccc1OCc1ccc(F)cc1 | 
23 | 1610 nM | CC(C)COc1ccc(-c2ncccn2)cc1C#N | 
24 | 209 nM | N#Cc1cc(-c2nc(N)cc(O)n2)ccc1OCc1ccccc1 | 
25 |  | N#Cc1cc(-c2nccc(O)n2)ccc1O | inhibition at 10 µM [8]: < 50%
26 | 73 nM | N#Cc1cc(-c2nccc(O)n2)ccc1OCC1CCCCC1 | 
